Measurements as given in the NIST ThermoML archive (doi:10.1016/j.jct.2019.105880).
± gives the expanded uncertainty stated by the source.

Assay: wn = mass fraction of the nth substance listed
Conditions: 100 kPa, Liquid; for viscosity: Falling or rolling sphere viscometry; for speed of sound: Frequency=3 MHz, Single path-length method; for mass density: Vibrating tube method

CCCO [propan-1-ol] + O
Conditions | mass density [kg/m3] | speed of sound [m/s] | viscosity [mPa·s]
288.15 K, w1 = 0.1 | 985.245 ± 1.4 | 1564.4 ± 3.1 | 1.82 ± 0.14
288.15 K, w1 = 0.2 | 971.452 ± 1.6 | 1587.4 ± 2.5 | 2.723 ± 0.18
288.15 K, w1 = 0.3 | 954.251 ± 1.9 | 1533.5 ± 5.5 | 3.208 ± 0.2
288.15 K, w1 = 0.4 | 934.617 ± 2 | 1485.7 ± 5.2 | 3.575 ± 0.22
293.15 K, w1 = 0.1 | 983.869 ± 1.5 | 1570.1 ± 2.3 | 1.545 ± 0.12
293.15 K, w1 = 0.2 | 969.02 ± 1.7 | 1581.6 ± 3 | 2.232 ± 0.14
293.15 K, w1 = 0.3 | 950.883 ± 1.9 | 1526.5 ± 5.6 | 2.618 ± 0.16
293.15 K, w1 = 0.4 | 931.255 ± 2 | 1477.2 ± 5.3 | 2.92 ± 0.18
298.15 K, w1 = 0.1 | 982.336 ± 1.6 | 1574.3 ± 2 | 1.333 ± 0.095
298.15 K, w1 = 0.2 | 966.338 ± 1.8 | 1575.5 ± 3.4 | 1.852 ± 0.12
298.15 K, w1 = 0.3 | 948.039 ± 2 | 1519.6 ± 5.7 | 2.174 ± 0.14
298.15 K, w1 = 0.4 | 927.818 ± 2.1 | 1468 ± 5.5 | 2.436 ± 0.15
303.15 K, w1 = 0.1 | 980.428 ± 1.7 | 1577.4 ± 2.2 | 1.156 ± 0.081
303.15 K, w1 = 0.2 | 963.667 ± 1.8 | 1569.5 ± 3.8 | 1.567 ± 0.1
303.15 K, w1 = 0.3 | 945.132 ± 2 | 1512.6 ± 5.9 | 1.841 ± 0.11
303.15 K, w1 = 0.4 | 924.386 ± 2.1 | 1458.6 ± 5.8 | 2.056 ± 0.13

CC(C)O [propan-2-ol] + O
Conditions | mass density, w1 = 0.1 [kg/m3] | mass density, w1 = 0.2 [kg/m3] | mass density, w1 = 0.3 [kg/m3] | speed of sound, w1 = 0.1 [m/s] | speed of sound, w1 = 0.2 [m/s] | speed of sound, w1 = 0.3 [m/s] | viscosity, w1 = 0.1 [mPa·s] | viscosity, w1 = 0.2 [mPa·s] | viscosity, w1 = 0.3 [mPa·s]
288.15 K | 983.401 ± 1.2 | 971.675 ± 1.5 | 954.62 ± 1.8 | 1573.7 ± 6.8 | 1638.6 ± 2.1 | 1586.9 ± 5.5 | 1.936 ± 0.16 | 3.087 ± 0.21 | 4.014 ± 0.26
293.15 K | 982.158 ± 1.3 | 969.345 ± 1.6 | 951.686 ± 1.8 | 1578.9 ± 5.5 | 1629.4 ± 2 | 1574.7 ± 5.8 | 1.633 ± 0.13 | 2.485 ± 0.17 | 3.172 ± 0.21
298.15 K | 980.642 ± 1.4 | 966.771 ± 1.7 | 948.106 ± 1.9 | 1582.9 ± 4.3 | 1620.2 ± 2.3 | 1562.8 ± 6.1 | 1.395 ± 0.11 | 2.045 ± 0.14 | 2.555 ± 0.16
303.15 K | 978.882 ± 1.5 | 964.199 ± 1.7 | 945.121 ± 1.9 | 1585.7 ± 3.2 | 1611 ± 2.7 | 1549.6 ± 6.5 | 1.208 ± 0.089 | 1.71 ± 0.11 | 2.105 ± 0.13
